This assay deals with T1, Nav1.7 (or SCN9A) channel (Homo sapiens, UniProt Q15858).
T1 construct: expressed in transfected cells
Nature of the assay: Nav1.7 (hSCN9A) electrophysiology assay, PatchXpress platform. It counts as cell-based. The following applies: estimated IC50 from single point electrophysiology data, HEK cells stably expressing hSCN9A, held at V1/2 of inactivation, read-out: Nav1.7 EIC50. On the procedure:
The ability of the compounds of formula (I) to block the Nav1.7 (or SCN9A) channel were measured using the assay described below.
Human Embryonic Kidney (HEK) cells were transfected with an hSCN9A construct using lipofectamine reagent (Invitrogen), using standard techniques. Cells stably expressing the hSCN9A constructs were identified by their resistance to G-418 (400 μg/ml). Clones were screened for expression using the whole-cell voltage-clamp technique.
HEK cells stably transfected with hSCN9A were maintained in DMEM medium supplemented with 10% heat-inactivated fetal bovine serum and 400 μg/ml G-418 in an incubator at 37° C. with a humidified atmosphere of 10% CO2. For HTS, cells were harvested from flasks by trypsinization and replated in an appropriate multi-well plate (typically 96 or 384 wells/plate) such that confluence would be achieved within 24 hours of plating. For electrophysiological studies, cells were removed from the culture flask by brief trypsinization and re-plated at low density onto glass cover slips. Cells were typically used for electrophysiological experiments within 24 to 72 hours after plating.
Cover slips containing HEK cells expressing hSCN9A were placed in a bath on the stage of an inverted microscope and perfused (approximately 1 ml/minutes) with extracellular solution of the following composition: 138 mM NaCl, 2 mM CaCl2, 5.4 mM KCl, 1 mM MgCl2, 10 mM glucose, and 10 mM HEPES, pH 7.4, with NaOH. […] The osmolarity of the extracellular and intracellular solutions was 300 mOsm/kg and 295 mOsm/kg, respectively. All recordings were made at room temperature (22-24° C.) using AXOPATCH 200B amplifiers and PCLAMP software (Axon Instruments, Burlingame, Calif.).
hSCN9A currents in HEK cells were measured using the whole-cell configuration of the patch-clamp technique (Hamill et al., 1981). Uncompensated series resistance was typically 2 to 5 mega ohms and >85% series resistance compensation was routinely achieved. […] Current records were acquired at 20 to 50 KHz and filtered at 5 to 10 KHz.
HEK cells stably transfected with hSCN9A were viewed under Hoffman contrast optics and placed in front of an array of flow pipes emitting either control or compound-containing extracellular solutions. All compounds were dissolved in dimethyl sulfoxide to make 10 mM stock solutions, which were then diluted into extracellular solution to attain the final concentrations desired. […] The voltage-dependence of inactivation was determined by applying a series of depolarizing prepulses (8 sec long in 10 mV increments) from a negative holding potential. The voltage was then immediately stepped to 0 mV to assess the magnitude of the sodium current. Currents elicited at 0 mV were plotted as a function of prepulse potential to allow estimation of the voltage at which 50% of the channels were inactivated (midpoint of inactivation or V1/2). Compounds were tested for their ability to inhibit hSCN9A sodium channels by activating the channel with a 20 msec voltage step to 0 mV following an 8 second conditioning prepulse to the empirically determined V1/2. Compound effect (% inhibition) was determined by difference in current amplitude before and after application of test compounds. […] Inhibition values <20% and >80% were excluded from the calculation.
Electrophysiological assays were conducted with PatchXpress 7000 hardware and associated software (Molecular Devices Corp). All assay buffers and solutions were identical to those used in conventional whole-cell voltage clamp experiments described above. hSCN9A cells were grown as above to 50%-80% confluency and harvested by trypsinization. Trypsinized cells were washed and resuspended in extracellular buffer at a concentration of 1×10^6 cells/ml. The onboard liquid handling facility of the PatchXpress was used for dispensing cells and application of test compounds.

Molecules are shown by their SMILES.

T1 sequence (Q15858 whole entry): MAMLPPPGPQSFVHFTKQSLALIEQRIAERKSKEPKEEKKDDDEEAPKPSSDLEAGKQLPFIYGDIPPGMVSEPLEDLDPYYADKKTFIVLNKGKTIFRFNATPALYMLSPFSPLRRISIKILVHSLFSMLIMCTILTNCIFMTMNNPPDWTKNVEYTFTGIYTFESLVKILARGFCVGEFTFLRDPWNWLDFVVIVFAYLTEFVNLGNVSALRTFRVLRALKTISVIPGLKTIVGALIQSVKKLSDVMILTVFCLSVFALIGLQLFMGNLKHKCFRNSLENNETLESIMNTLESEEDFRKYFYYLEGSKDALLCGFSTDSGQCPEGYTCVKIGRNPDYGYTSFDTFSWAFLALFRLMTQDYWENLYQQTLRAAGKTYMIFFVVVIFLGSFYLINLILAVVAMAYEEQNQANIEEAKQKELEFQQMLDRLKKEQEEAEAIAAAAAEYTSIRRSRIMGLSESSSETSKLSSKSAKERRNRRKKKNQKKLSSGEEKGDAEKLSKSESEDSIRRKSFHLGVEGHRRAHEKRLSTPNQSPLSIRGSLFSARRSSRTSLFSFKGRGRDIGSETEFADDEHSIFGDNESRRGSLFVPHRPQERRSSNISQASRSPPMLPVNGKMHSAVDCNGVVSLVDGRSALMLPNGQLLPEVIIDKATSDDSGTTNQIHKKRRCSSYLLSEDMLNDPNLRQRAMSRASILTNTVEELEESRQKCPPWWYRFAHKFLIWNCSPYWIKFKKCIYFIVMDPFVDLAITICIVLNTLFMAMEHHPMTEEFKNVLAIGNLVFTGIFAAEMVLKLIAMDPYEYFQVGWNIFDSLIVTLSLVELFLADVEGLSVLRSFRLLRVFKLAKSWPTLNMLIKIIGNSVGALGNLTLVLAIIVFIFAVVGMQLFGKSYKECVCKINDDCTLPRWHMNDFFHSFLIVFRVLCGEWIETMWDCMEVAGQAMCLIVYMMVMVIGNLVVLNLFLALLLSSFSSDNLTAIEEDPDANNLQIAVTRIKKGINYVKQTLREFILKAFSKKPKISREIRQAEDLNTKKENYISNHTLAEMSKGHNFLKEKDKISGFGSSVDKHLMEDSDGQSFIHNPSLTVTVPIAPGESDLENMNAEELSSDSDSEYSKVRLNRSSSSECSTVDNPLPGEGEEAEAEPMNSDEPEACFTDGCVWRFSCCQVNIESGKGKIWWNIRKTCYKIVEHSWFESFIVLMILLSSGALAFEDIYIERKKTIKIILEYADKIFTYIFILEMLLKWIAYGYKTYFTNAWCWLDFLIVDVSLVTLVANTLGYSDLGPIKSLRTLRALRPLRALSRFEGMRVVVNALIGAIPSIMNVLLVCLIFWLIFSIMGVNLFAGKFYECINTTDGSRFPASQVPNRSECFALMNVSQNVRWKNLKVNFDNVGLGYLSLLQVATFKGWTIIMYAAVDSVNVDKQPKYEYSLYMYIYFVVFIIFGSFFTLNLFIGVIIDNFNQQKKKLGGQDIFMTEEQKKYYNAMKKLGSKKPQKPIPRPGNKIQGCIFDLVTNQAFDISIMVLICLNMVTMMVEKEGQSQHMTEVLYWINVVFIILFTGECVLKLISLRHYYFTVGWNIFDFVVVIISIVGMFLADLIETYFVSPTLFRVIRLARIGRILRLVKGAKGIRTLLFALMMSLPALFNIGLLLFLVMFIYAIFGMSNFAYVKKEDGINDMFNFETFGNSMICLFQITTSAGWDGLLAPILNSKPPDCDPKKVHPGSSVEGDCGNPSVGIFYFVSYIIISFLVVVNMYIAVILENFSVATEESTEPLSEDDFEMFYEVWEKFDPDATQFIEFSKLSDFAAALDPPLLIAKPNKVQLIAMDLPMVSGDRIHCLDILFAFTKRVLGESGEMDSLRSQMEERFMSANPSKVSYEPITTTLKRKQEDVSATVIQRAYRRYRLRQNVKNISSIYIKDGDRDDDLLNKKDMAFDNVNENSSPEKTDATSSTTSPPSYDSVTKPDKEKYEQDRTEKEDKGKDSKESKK

For `COc1ccc(COc2cc(F)c(C(=O)NS(C)(=O)=O)cc2Cl)cc1` [Example 71, 5-chloro-2-fluoro-4-[(4-methoxybenzyl)oxy]-N-(methylsulfonyl)benzamide], the IC50 is 3900 nM. As for `CS(=O)(=O)NC(=O)c1ccc(OCc2ccc(Cl)cc2)c(Cl)c1` [Example 73, 3-chloro-4-[(4-chlorobenzyl)oxy]-N-(methylsulfonyl)benzamide], the figure is 6400 nM; as for `CS(=O)(=O)NC(=O)c1ccc(OCc2cccc(Cl)c2)c(C#N)c1` [Example 74, 4-[(3-chlorobenzyl)oxy]-3-cyano-N-(methylsulfonyl)benzamide], 9700 nM.

Take `CS(=O)(=O)NC(=O)c1ccc(OCc2ccccc2OC(F)(F)F)c(C#N)c1` [Example 76, 3-cyano-N-(methylsulfonyl)-4-{[2-(trifluoromethoxy)benzyl]oxy}benzamide]: the IC50 is 10000 nM. For `CS(=O)(=O)NC(=O)c1ccc(OCc2ccc(Cl)cc2)c(C#N)c1` [Example 77, 4-[(4-chlorobenzyl)oxy]-3-cyano-N-(methylsulfonyl)benzamide], the IC50 is over 3000 nM. Regarding `CS(=O)(=O)NC(=O)c1cc(Cl)c(OCc2ccccc2Cl)cc1F` [Example 78, 5-chloro-4-[(2-chlorobenzyl)oxy]-2-fluoro-N-(methylsulfonyl)benzamide], the IC50 was 390 nM.

Take `CS(=O)(=O)NC(=O)c1ccc(OCc2cccc(C#N)c2)c(Cl)c1` [Example 80, 3-chloro-4-[(3-cyanobenzyl)oxy]-N-(methylsulfonyl)benzamide]: the IC50 is over 3000 nM. The figure for `COc1cccc(COc2ccc(C(=O)NS(C)(=O)=O)cc2)c1` [Example 82, 4-[(3-methoxybenzyl)oxy]-N-(methylsulfonyl)benzamide] is 5500 nM.

For `CS(=O)(=O)NC(=O)c1cc(Cl)c(OCc2ccc(-c3ccccc3)cc2)cc1F` [Example 83, 4-(biphenyl-4-ylmethoxy)-5-chloro-2-fluoro-N-(methylsulfonyl)benzamide], the IC50 is 620 nM.

`CS(=O)(=O)NC(=O)c1cc(Cl)c(OCc2ccc(Cl)cc2)cc1F` [Example 84, 5-chloro-4-[(4-chlorobenzyl)oxy]-2-fluoro-N-(methylsulfonyl)benzamide]: the IC50 was 6500 nM. The figure for `CS(=O)(=O)NC(=O)c1ccc(OCc2ccc(-c3ccccc3)cc2)cc1` [Example 85, 4-(biphenyl-4-ylmethoxy)-N-(methylsulfonyl)benzamide] is 450 nM; for `CS(=O)(=O)NC(=O)c1cc(Cl)c(OCc2cccc(Cl)c2)cc1F` [Example 86, 5-chloro-4-[(3-chlorobenzyl)oxy]-2-fluoro-N-(methylsulfonyl)benzamide] it is 580 nM; for `CS(=O)(=O)NC(=O)c1cc(Cl)c(OCc2ccccc2-c2ccccc2)cc1F` [Example 87, 4-(biphenyl-2-ylmethoxy)-5-chloro-2-fluoro-N-(methylsulfonyl)benzamide] it is 640 nM. The figure for `CS(=O)(=O)NC(=O)c1ccc(OCc2ccc(Cl)cc2)cc1` [Example 88, 4-[(4-chlorobenzyl)oxy]-N-(methylsulfonyl)benzamide] is 6100 nM; for `COc1ccc(COc2ccc(C(=O)NS(C)(=O)=O)cc2)cc1` [Example 89, 4-[(4-methoxybenzyl)oxy]-N-(methylsulfonyl)benzamide] it is over 3000 nM. As for `CS(=O)(=O)NC(=O)c1ccc(OCc2ccc(-n3cccn3)cc2)c(Cl)c1` [Example 90, 3-chloro-N-(methylsulfonyl)-4-{[4-(1H-pyrazol-1-yl)benzyl]oxy}benzamide], the figure is over 3000 nM; as for `CS(=O)(=O)NC(=O)c1ccc(OCc2cccc(Cl)c2)cc1` [Example 91, 4-[(3-chlorobenzyl)oxy]-N-(methylsulfonyl)benzamide], 3500 nM. As for `CS(=O)(=O)NC(=O)c1ccc(OCc2cccc(OC(F)(F)F)c2)cc1` [Example 92, N-(methylsulfonyl)-4-{[3-(trifluoromethoxy)benzyl]oxy}benzamide], the IC50 is 590 nM. As for `CS(=O)(=O)NC(=O)c1ccc(OCc2ccccc2-c2ccccc2)c(C#N)c1` [Example 93, 4-(biphenyl-2-ylmethoxy)-3-cyano-N-(methylsulfonyl)benzamide], the figure is over 3000 nM; as for `CS(=O)(=O)NC(=O)c1ccc(OCc2ccccc2-c2ccccc2)cc1` [Example 94, 4-(biphenyl-2-ylmethoxy)-N-(methylsulfonyl)benzamide], 4300 nM. The figure for `COc1ccc(OCc2cc(F)c(C(=O)NS(C)(=O)=O)cc2F)cc1F` [Example 97, 2,5-difluoro-4-[(3-fluoro-4-methoxyphenoxy)methyl]-N-(methylsulfonyl)benzamide] is 1500 nM; for `COc1cc(Cl)cc(OCc2cc(F)c(C(=O)NS(C)(=O)=O)cc2F)c1` [Example 98, 4-[(3-chloro-5-methoxyphenoxy)methyl]-2,5-difluoro-N-(methylsulfonyl)benzamide] it is 140 nM. As for `CS(=O)(=O)NC(=O)c1cc(F)c(COc2ccc3cc(C#N)ccc3c2)cc1F` [Example 99, 4-{[(6-cyano-2-naphthyl)oxy]methyl}-2,5-difluoro-N-(methylsulfonyl)benzamide], the figure is 820 nM; as for `Cc1ccc(Cl)cc1OCc1cc(F)c(C(=O)NS(C)(=O)=O)cc1F` [Example 100, 4-[(5-chloro-2-methylphenoxy)methyl]-2,5-difluoro-N-(methylsulfonyl)benzamide], 390 nM; as for `CS(=O)(=O)NC(=O)c1cc(F)c(COc2ccc(C#N)c(C(F)(F)F)c2)cc1F` [Example 101, 4-{[4-cyano-3-(trifluoromethyl)phenoxy]methyl}-2,5-difluoro-N-(methylsulfonyl)benzamide], 1900 nM. For the compound `Cc1c(OCc2cc(F)c(C(=O)NS(C)(=O)=O)cc2F)cccc1-n1cccn1` [Example 102, 2,5-difluoro-4-{[2-methyl-3-(1H-pyrazol-1-yl)phenoxy]methyl}-N-(methylsulfonyl)benzamide], the IC50 was over 3000 nM. As for `CS(=O)(=O)NC(=O)c1cc(F)c(COc2ccc(C#N)c(C#N)c2)cc1F` [Example 103, 4-[(3,4-dicyanophenoxy)methyl]-2,5-difluoro-N-(methylsulfonyl)benzamide], the figure is 6100 nM; as for `CS(=O)(=O)NC(=O)c1cc(F)c(COc2ccc(C#N)cc2F)cc1F` [Example 104, 4-[(4-cyano-2-fluorophenoxy)methyl]-2,5-difluoro-N-(methylsulfonyl)benzamide], 5100 nM. The figure for `Cc1cc(Cl)cc(OCc2cc(F)c(C(=O)NS(C)(=O)=O)cc2F)c1` [Example 105, 4-[(3-chloro-5-methylphenoxy)methyl]-2,5-difluoro-N-(methylsulfonyl)benzamide] is 100 nM; for `CN1CCC(c2cccc(OCc3cc(F)c(C(=O)NS(C)(=O)=O)cc3F)c2)CC1` [Example 106, 2,5-difluoro-4-{[3-(1-methylpiperidin-4-yl)phenoxy]methyl}-N-(methylsulfonyl)benzamide] it is 9200 nM; for `CC(C)c1cccc(OCc2cc(F)c(C(=O)NS(C)(=O)=O)cc2F)c1` [Example 107, 2,5-difluoro-4-[(3-isopropylphenoxy)methyl]-N-(methylsulfonyl)benzamide] it is 330 nM.

For the compound `CS(=O)(=O)NC(=O)c1cc(F)c(COc2cc(F)cc(C(F)(F)F)c2)cc1F` [Example 108, 2,5-difluoro-4-{[3-fluoro-5-(trifluoromethyl)phenoxy]methyl}-N-(methylsulfonyl)benzamide], the IC50 was 87 nM. The figure for `CS(=O)(=O)NC(=O)c1cc(F)c(COc2cccc(C(F)(F)F)c2)cc1F` [Example 109, 2,5-difluoro-N-(methylsulfonyl)-4-{[3-(trifluoromethyl)phenoxy]methyl}benzamide] is 140 nM.

The record behind these values is patent publication US9096500B2, “Acyl sulfonamide compounds” (Pfizer Limited, priority 2010, dated 2015).
